The subject of one series is spider mites. Nature of the series: spider mite test, efficacy in % after 6 days. Format: in vivo. The following applies: 100% = all spider mites killed, 0% = none killed. As to the method: After 6 days, the efficacy in % is determined. 100% means that all of the spider mites have been killed; 0% means that none of the spider mites have been killed.
A short description of series [1]: Determination of the log P values by HPLC (formic acid method). The format is physicochemical. The settings on record: reversed-phase column (C 18), acidic range (pH 3.4), 55° C. As to the method: 1) Description of Method for Determination of the Log P Values (Formic Acid Method)
Eluents for determination in the acidic range (pH 3.4):
Eluent A: acetonitrile+1 ml of formic acid/liter. Eluent B: water+0.9 ml of formic acid/liter.
The lambda max values were determined in the maxima of the chromatographic signals using the UV spectra from 200 nm to 400 nm.

In a further series the test system is Phaedon cochleariae. Kind of series: Phaedon cochleariae spray test (PHAECO). Format: in vivo. The following applies: foliar, 168 h, application rate 500 g/ha, larvae on Chinese cabbage leaf discs, after 7 days, read-out: efficacy. As to the method: Phaedon cochleariae Spray Test (PHAECO)
Solvents: 78.0 parts by weight of acetone • • 1.5 parts by weight of dimethylformamide
Emulsifier: 0.5 part by weight of alkylaryl polyglycol ether
To produce a suitable preparation of active compound, 1 part by weight of active compound is mixed with the stated amounts of solvents and emulsifier, and the concentrate is diluted with emulsifier-containing water to the desired concentration.
After 7 days, the efficacy in % is determined. 100% means that all of the beetle larvae have been killed; 0% means that none of the beetle larvae have been killed.

A further series deals with Boophilus microplus. Kind of series: Boophilus microplus test (DIP). The settings on record: application rate 100 ppm, after 7 days by laying of fertile eggs, 100% = no fertile eggs. The format is in vivo. How it is done:
Boophilus microplus Test (DIP)
Test animals: adult engorged Boophilus microplus females of the SP-resistant Parkhurst strain
(§1) Solvent: dimethyl sulphoxide
10 mg of active compound are dissolved in 0.5 ml of dimethyl sulphoxide. For the purpose of preparing a suitable formulation, the active compound solution is diluted with water to the concentration desired in each case.
This active compound preparation is pipetted into tubes. 8-10 ticks are transferred into a further tube with holes. The tube is immersed into the active compound formulation, and all ticks are completely wetted. After the liquid has run out, the ticks are transferred onto filter discs in plastic dishes and stored in a climate-controlled room.
The activity is assessed after 7 days by laying of fertile eggs. Eggs whose fertility is not visible from the outside are stored in a climate-controlled cabinet until the larvae hatch. An efficacy of 100% means that none of the ticks has laid any fertile eggs.

The subject of the next series is Meloidogyne incognita. Kind of series: Meloidogyne incognita test (MELGIN). The settings on record: application rate 20 ppm, lettuce in sand, after 14 days; for pest or weed control at 20 ppm: Meloidogyne incognita, 336 h, read-out: nematicidal effect (formation of galls). Format: in vivo. As to the method:
Meloidogyne incognita Test (MELGIN)
Solvent: 125.0 parts by weight of acetone
To prepare a suitable active compound preparation, 1 part by weight of active compound is mixed with the stated amount of solvent and the concentrate is diluted with water to the desired concentration.
Vessels are filled with sand, active compound solution, an egg/larvae suspension of the root-knot nematode (Meloidogyne incognita) and lettuce seeds. The lettuce seeds germinate and the plants develop. On the roots, galls are formed.
After 14 days, the nematicidal effect in % is determined by the formation of galls. 100% means that no galls have been found; 0% means that the number of galls on the treated plants corresponds to the untreated control.

Another series concerns Cooperia curticei. Kind of series: Cooperia curticei test (COOPCU). The format is in vivo. How it is done: Cooperia curticei Test (COOPCU)
as §1
To produce a suitable preparation of active compound, 10 mg of active compound are mixed with 0.5 ml of dimethyl sulphoxide, and the concentrate is diluted with Ringer solution to the desired concentration.
Vessels containing the active compound preparation of the desired concentration are populated with about 40 nematode larvae (Cooperia curticei).
After 5 days, the kill in % is determined 100% means that all of the larvae have been killed; 0% means that none of the larvae have been killed.

Where [2] appears, read: reversed-phase HPLC column (C 18).
Setting [3] is: Cooperia curticei, 120 h, read-out: efficacy (kill).

What is called log P is a log measure of how a compound divides between an organic and an aqueous phase. A low value points to a more hydrophilic compound. The term chromatographic logP denotes lipophilicity estimated from chromatographic retention.

`Cc1cc(NC(=O)c2cccnc2Br)nn1-c1ccc(F)cc1F` [Compound I-1-210] returned an efficacy in % in the series with spider mites (application rate of 500 g/ha) of 95%. For the same compound, the lipophilicity (log P) in series [1] came to 2.89.
`Cn1nc(C(F)(F)F)c(C(=O)Nc2ccn(-c3cc(F)ccc3F)n2)c1F` [Compound I-1-72, N-[1-(2,5-Difluorophenyl)-1H-pyrazol-3-yl]-5-fluoro-1-methyl-3-(trifluoromethyl)-1H-pyrazole-4-carboxamide] came in with a chromatographic logP in series [1] (setting [2]) of 2.93. Further, the pest or weed control at 500 g/ha in the series with Phaedon cochleariae stood at 100%.
In series [1] (setting [2]), `O=C(Nc1ccn(-c2c(Cl)cccc2Cl)n1)c1ccccc1I` [Compound I-1-123, N-[1-(2,6-Dichlorophenyl)-1H-pyrazol-3-yl]-2-iodobenzamide] displayed a chromatographic logP of 3.04. In addition, the pest or weed control at 500 g/ha in the series on Phaedon cochleariae turned out to be 100%.
`CC#CCN(C(=O)c1ccccc1C(F)(F)F)c1ccn(-c2c(F)cccc2F)n1` [Compound I-1-263] had an efficacy in % with spider mites (application rate of 500 g/ha) of 95%. For the same compound, the “log P” value in series [1] turned out to be 3.40.
Take `CCOCN(C(=O)c1ccccc1C(F)(F)F)c1ccn(-c2c(F)cccc2F)n1` [Compound I-1-262]: the efficacy in % with spider mites (application rate of 500 g/ha) was found to be 95%. The “log P” value in series [1] was 3.40.
For `O=C(Nc1ccn(-c2ccccc2F)n1)c1ccccc1Br` [Compound I-1-10], in that order: 80% and 2.78.
On to `O=C(Nc1ccn(-c2ccccc2C(F)(F)F)n1)c1ccccc1I` [Compound I-1-5], for which the efficacy in the series on Boophilus microplus came out at 100%. Moreover, the “log P” value in series [1] is recorded as 3.05.
`N#Cc1c(-c2ccc(F)cc2)ccnc1-n1ccc(NC(=O)c2ccccc2C(F)(F)F)n1` [Compound I-1-641, N-{1-[3-Cyano-4-(4-fluorophenyl)pyridin-2-yl]-1H-pyrazol-3-yl}-2-(trifluoromethyl)benzamide]: the pest or weed control at 20 ppm with Meloidogyne incognita is 90%. In series [1] (setting [2]), this compound gave a chromatographic logP of 3.41.
For `O=C(Nc1ccn(-c2ccccc2Cl)n1)c1ccccc1Br` [Compound I-1-32], in the series on Boophilus microplus, the efficacy came out at 80%. In series [1], the lipophilicity (log P) was 2.83.
For `O=C(Nc1ccn(-c2ccccc2Br)n1)c1ccccc1I` [Compound I-1-53], in the series with Boophilus microplus, the efficacy was 90%. The lipophilicity (log P) in series [1] was found to be 3.07.
Regarding `Cc1ccccc1-n1ccc(NC(=O)c2ccccc2Br)n1` [Compound I-1-1, 2-BromoN-[1-(2-methylphenyl)-1H-pyrazol-3-yl]benzamide], the chromatographic logP in series [1] (setting [2]) amounted to 2.79. Also, the pest or weed control at 500 g/ha in the series with Phaedon cochleariae is 100%.
For `O=C(Nc1ccn(-c2c(F)cc(F)c[n+]2[O-])n1)c1ccccc1C(F)(F)F` [Compound I-1-438, N-[1-(3,5-Difluoro-1-oxidopyridin-2-yl)-1H-pyrazol-3-yl]-2-(trifluoromethyl)benzamide], the pest or weed control at 20 ppm with Meloidogyne incognita turned out to be 90%. The same compound came in with a chromatographic logP in series [1] (setting [2]) of 1.69.
Regarding `O=C(Nc1ccn(-c2ncc(F)cc2F)n1)c1c(F)cccc1F` [Compound I-1-146, N-[1-(3,5-Difluoropyridin-2-yl)-1H-pyrazol-3-yl]-2,6-difluorobenzamide], the pest or weed control at 20 ppm in the series with Meloidogyne incognita was determined as 100%. The chromatographic logP in series [1] (setting [2]) turned out to be 2.19. Also, in the series with Cooperia curticei (setting [3]), the pest or weed control at 100 ppm came to 100%.
In the series with spider mites (application rate of 100 g/ha), `O=C(Nc1ccn(-c2ccccc2Cl)n1)c1cccnc1Cl` [Compound I-1-43] gave an efficacy in % of 90%. Also, the “log P” value in series [1] is 2.19.
In the series with Boophilus microplus, `Cc1nn(C)c(Cl)c1C(=O)Nc1ccn(-c2ccccc2Cl)n1` [Compound I-1-48] had an efficacy of 100%. Also, in series [1], the log partition coefficient (log P) was 2.46.
For the compound `O=C(Nc1ccn(-c2c(F)cccc2F)n1)c1cccnc1Br` [Compound I-1-96], the efficacy with Boophilus microplus is 100%. Also, the log partition coefficient (log P) in series [1] amounted to 1.97.
In series [1] (setting [2]), `O=C(Nc1nn(-c2ccccc2Cl)cc1Br)c1ccccc1C(F)(F)F` [Compound I-1-16, N-[4-Bromo-1-(2-chlorophenyl)-1H-pyrazol-3-yl]-2-(trifluoromethyl)benzamide] showed a chromatographic logP of 3.11. Besides, in the series with Phaedon cochleariae, the pest or weed control at 500 g/ha was 83%.
Turning to `O=C(Nc1ccn(-c2ccccc2Cl)n1)c1ccccc1I` [Compound I-1-33], in the series on Boophilus microplus, the efficacy is recorded as 100%. Moreover, the log partition coefficient (log P) in series [1] stood at 2.95.
For `CCOc1cccc(F)c1-n1ccc(NC(=O)c2ccccc2Cl)n1` [Compound I-1-117, 2-Chloro-N-[1-(2-ethoxy-6-fluorophenyl)-1H-pyrazol-3-yl]benzamide], the pest or weed control at 20 ppm with Meloidogyne incognita was 100%. The same compound came in with a chromatographic logP in series [1] (setting [2]) of 2.84. For the same compound, the pest or weed control at 500 g/ha with Phaedon cochleariae was 100%.
`O=C(Nc1ccn(-c2c(F)cccc2F)n1)c1ccccc1I` [Compound I-1-83] returned an efficacy with Boophilus microplus of 100%. Also, the “log P” value in series [1] came to 2.67.
Turning to `O=C(Nc1cnn(-c2c(F)cccc2F)n1)c1ccccc1C(F)(F)F` [Compound I-2-35, N-[2-(2,6-Difluorophenyl)-2H-1,2,3-triazol-4-yl]-2-(trifluoromethyl)benzamide], the pest or weed control at 20 ppm in the series with Meloidogyne incognita and with Cooperia curticei (setting [3]) was 100% throughout. Further, in series [1], the chromatographic logP turned out to be 2.8. Also, the pest or weed control at 500 g/ha in the series with Phaedon cochleariae was 100%.
As to `O=C(Nc1ccn(-c2ncccc2Cl)n1)c1ccccc1Br` [Compound I-1-137], in the series on Meloidogyne incognita, the “nematicidal effect (formation of galls)” value stood at 80%. The “log P” value in series [1] came out at 2.23.
`O=C(Nc1ccn(-c2ccccc2Cl)n1)c1ccccc1OC(F)(F)F` [Compound I-1-18] displayed an efficacy in % with spider mites (application rate of 500 g/ha) of 80%. For the same compound, the “log P” value in series [1] is reported as 3.28.
With `N#Cc1nccnc1-n1ccc(NC(=O)c2ccccc2C(F)(F)F)n1` [Compound I-1-574, N-[1-(3-Cyanopyrazin-2-yl)-1H-pyrazol-3-yl]-2-(trifluoromethyl)benzamide], in the series on Meloidogyne incognita, the pest or weed control at 20 ppm was 100%. Also, in series [1] (setting [2]), the chromatographic logP was 2.47.
In series [1] (setting [2]), `O=C(Nc1nn(-c2ccccc2Cl)cc1Cl)c1ccccc1C(F)(F)F` [Compound I-1-15, N-[4-Chloro-1-(2-chlorophenyl)-1H-pyrazol-3-yl]-2-(trifluoromethyl)benzamide] had a chromatographic logP of 3.06. Further, the pest or weed control at 500 g/ha in the series with Phaedon cochleariae was determined as 100%.
Take `N#Cc1cccnc1-n1ccc(NC(=O)c2ccccc2C(F)(F)F)n1` [Compound I-1-575, N-[1-(3-Cyanopyridin-2-yl)-1H-pyrazol-3-yl]-2-(trifluoromethyl)benzamide]: the pest or weed control at 20 ppm in the series on Meloidogyne incognita and in the series on Cooperia curticei (setting [3]) was 100% throughout. The chromatographic logP in series [1] (setting [2]) turned out to be 2.55.
In the case of `O=C(Nc1ccn(-c2cccc(F)c2F)n1)c1ccccc1I` [Compound I-1-190], in the series on Meloidogyne incognita, the “nematicidal effect (formation of galls)” value is on record as 90%. For the same compound, in series [1], the “log P” value turned out to be 3.09.
In turn, `O=C(NC1=NN(c2c(F)cccc2F)CC1)c1ccccc1Br` [Compound I-4-2, 2-Bromo-N-[1-(2,6-difluorophenyl)-4,5-dihydro-1H-pyrazol-3-yl]benzamide] returned a chromatographic logP in series [1] (setting [2]) of 2.8. The pest or weed control at 500 g/ha in the series with Phaedon cochleariae was 100%.
`CN(C(=O)c1ccccc1Cl)c1ccn(-c2ccccc2Cl)n1` [Compound I-1-21, 2-Chloro-N-[1-(2-chlorophenyl)-1H-pyrazol-3-yl]-N-methylbenzamide]: the chromatographic logP in series [1] (setting [2]) was determined as 3.14. Moreover, the pest or weed control at 500 g/ha in the series with Phaedon cochleariae is 100%.
`Cc1cccc(C)c1-n1ccc(NC(=O)c2ccccc2Cl)n1` [Compound I-1-61, 2-Chloro-N-[1-(2,6-dimethylphenyl)-1H-pyrazol-3-yl]benzamide] returned a chromatographic logP in series [1] (setting [2]) of 2.63. Further, in the series with Phaedon cochleariae, the pest or weed control at 500 g/ha turned out to be 100%.
In the case of `O=C(Nc1ccn(-c2c(F)cccc2F)n1)c1sccc1C(F)(F)F` [Compound I-1-284], the “log P” value in series [1] was determined as 2.82. Further, the “efficacy (kill)” value in the series on Cooperia curticei (application rate 4 ppm, nematode larvae, after 5 days) amounted to 80%.

These data come from patent publication US9802899B2, “Heterocyclic compounds as pesticides” (BAYER CROPSCIENCE AG, priority 2012, dated 2017).
